# Data: article PMC4985751, “Enhanced Cationic Charge is a Key Factor in Promoting Staphylocidal Activity of α-Melanocyte Stimulating Hormone via Selective Lipid Affinity” (Scientific Reports, 2016)
# Key:
# [1] = tested on: MSSA ATCC 29213; assay: 2 h killing assay (colony count), MSSA; type: cell-based, Staphylococcus aureus; conditions: 10 μM peptide, 37 °C, 10^7 CFU/mL MSSA ATCC 29213, 5 mM HEPES, 20 mM glucose, pH 7.4, mean ± S.D. of three independent experiments
# Protocol: (§1) To determine the antibacterial activity, cells (MSSA ATCC 29213 and MRSA ATCC 33591) from secondary culture mid-logarithmic phase were used. The cells were centrifuged, washed and re-suspended in buffer (5 mM HEPES, 20 mM glucose, pH 7.4). The re-suspended cells were adjusted to OD600 of 0.5 spectrophotometrically (~10^8 CFU/mL). Desired cell densities were then exposed to 10 μM concentration of α-MSH and other analogues and incubated at 37 °C for 2 h. After 2 h incubation, the cells were diluted in buffer and small aliquots were plated on BHI agar plates. The plates were incubated overnight at 37 °C. Survival was determined by counting of the colony forming unit (CFU/mL) on agar plate using the following formula[23]: […]
# [2] = tested on: MRSA ATCC 33591; assay: 2 h killing assay (colony count), MRSA; type: cell-based, Staphylococcus aureus; conditions: 10 μM peptide, 37 °C, 10^6 CFU/mL MRSA ATCC 33591, 5 mM HEPES, 20 mM glucose, pH 7.4, mean ± S.D. of three independent experiments
# Protocol: as §1
# [3] = tested on: B16 mouse melanoma cells stably expressing human melanocortin receptor MC1R; assay: Cyclic-AMP accumulation analysis; type: cell-based; conditions: 600 nM, 1 μM and 10 μM peptide, 10 min
# Protocol: The intracellular cyclic-AMP analysis was performed according to a method described elsewhere, with slight modifications. Briefly, B16 mouse melanoma cells stably expressing human melanocortin receptor MC1R were grown to confluence in DMEM medium (Sigma-Aldrich, USA) containing 10% fetal calf serum (FCS) and 1x anti-anti (Gibco). The cells were seeded in 12-well plates 48 h before assay and grown to 10^5 cells/well. For the assay, the medium was removed and cells were washed with 1 mL of media. Then 1 mL DMEM media (without FCS) containing 100 μM 3-isobutyl-1-methylxanthine (IBMX) was added to each well and incubated for 30 min at 37 °C. The media was then discarded and various concentrations of α-MSH and KKK-MSH viz., 600 nM, 1 μM and 10 μM, in 1 mL fresh 25% DMEM media (without FCS) in PBS containing 100 μM IBMX were added to the appropriate wells and incubated for 10 min at 37 °C, 5% CO2. After 10 min the reaction was stopped by aspirating the media and washing the wells with 1 mL PBS. 200 μL 0.1 M hydrochloric acid was then added to each well and the wells were scrapped. The lysates were centrifuged at 600 rcf for 5 min and the supernatants were collected and diluted 1000 times in 0.1 M HCl and used for analysis of the total cyclic-AMP content using Enzyme Immunoassay Kit (Sigma-Aldrich, USA, CA200) according to the manufacturer’s instructions.
# [4] = tested on: MSSA ATCC 29213; assay: Membrane permeabilization, PI uptake by flow cytometry; type: cell-based, Staphylococcus aureus; conditions: 10 μM peptide, 1 h, 37 °C, 10^5 CFU/mL in PBS pH 7.4; >10 a.u. counted positive; mean ± S.D. of three independent experiments
# Protocol: The propidium iodide (PI) uptake assay was performed to assess membrane permeabilization by flow cytometry according to a method described elsewhere[58]. MSSA ATCC 29213 cells were grown in BHI broth to mid-logarithmic phase and harvested by centrifugation at 4,000 rpm for 10 min. The cell pellet was washed once with PBS (10 mM sodium phosphate, 150 mM NaCl, pH 7.4) and was adjusted to 10^5 CFU/mL in PBS. The cells were incubated with PI (1.3 μg/mL) at 37 °C for 20 min in the dark. After incubating the cells with PI, cells were exposed to peptides (10 μM) at 37 °C. PI fluorescence was measured after 1 h incubation with excitation and emission wavelength of 544 nm and 620 nm, respectively, using Becton Dickinson (BD) FACS verse, San Jose, CA. The cells having more than 10 fluorescence unit (arbitrary) were considered to be stained with PI.
# [5] = Lipid binding by Trp fluorescence titration
# Protocol: Further, we evaluated the relative binding constants of α-MSH and KKK-MSH to bacterial mimic SUVs to understand if there are differences between lipid binding affinities of these two peptides. Towards this, we incubated a fixed concentration of peptide (12.5 μM) with increasing concentrations of bacterial mimic SUVs (DMPC:DMPG, 7:3, w/w) and concomitant changes in the intensity of emission maxima for Trp residue were recorded. Correction for light scattering was done by subtracting the corresponding spectra of the SUVs alone. […]
# Figure 7 Trp fluorescence studies to estimate binding of α-MSH and KKK-MSH to bacterial mimic SUVs. Increasing concentrations of DMPC:DMPG (7:3, w/w) SUVs in 10 mM TES buffer (pH 7.2) were titrated with fixed peptide concentration (12.5 μM) and the emission spectrum was recorded. […] The fluorescence spectrum was recorded at 25 °C by exciting samples at 295 nm and recording emission from 310 nm to 450 nm. […] Contributions from the buffer and SUVs were appropriately subtracted and volume corrected fluorescence values were used to calculate the fraction of bound peptide.
# Lipid binding was measured by titrating SUVs (DMPC:DMPG, 7:3, w/w) into 12.5 μM of the peptide by varying lipid to peptide ratio from 75.6 to 3.3. After each addition of lipid, emission spectrum was recorded between 310 to 450 nm using excitation at 295 nm with excitation and emission slit width of 3 nm. […]
# [6] = tested on: MSSA ATCC 29213; type: cell-based, Staphylococcus aureus; conditions: at 10.47 μM peptide; thereafter marginal increase up to 41.2 μM
# Protocol: The cytoplasmic membrane depolarization was measured using membrane potential sensitive cyanine dye DiSC3(5)[57]. Briefly, mid-logarithmic phase MSSA ATCC 29213 cells were washed and re-suspended in buffer (5 mM HEPES, 20 mM glucose, pH 7.2) to an OD600 of 0.05 which corresponds to ~10^7 CFU/mL. Cells were divided into aliquots and incubated with 2 μM of DiSC3(5) for 1 h to get steady baseline fluorescence intensity. The dye-loaded cells were treated with increasing peptide concentrations (2.1 μM, 10.47 μM, 20.83 μM and 41.23 μM). Fluorescence was monitored in a Shimadzu RF-5301 PC spectrofluorimeter at an excitation wavelength of 622 nm and an emission wavelength of 670 nm. The corresponding killing was measured by plating the aliquots onto BHI agar plate to obtain viable bacterial counts.
# [7] = RP-HPLC elution, % hydrophobicity; type: physicochemical; conditions: chromatographic, C18 column
# Text: A balance between hydrophobicity and cationic charge has been reported to be crucial for the activity of many membrane active CAMPs[39][40][41]. […] For α-MSH it has been shown that the minimum energy conformation is a β-turn which is present in the middle of the sequence spanning the putative message region (residues 6–9)[42]. […] Although, acquisition of secondary structure in the vicinity of phospholipid bilayers has been reported to be crucial for activity, there are examples where no direct correlation between peptide structure acquisition ability and antibacterial activity was observed.
# [8] = tested on: 3T3 murine fibroblast cell line; type: cell-based, mouse
# Protocol: The cytotoxicity of α-MSH and analogues was tested against 3T3 murine fibroblast cell line using a protocol as described previously. The cell line was propagated at 37 °C in 5% CO2 to over 75% confluence in DMEM supplemented with 10% fetal bovine serum (FBS) and antibiotics and transferred (after treatment with trypsin) to each well of a 24-well plate to a final count of 0.2 × 10^5 cells/well for 24 h. After 24 h, media was aspirated and desired concentration of peptides (50 μM) dissolved in 25% (v/v) DMEM in PBS was added to each well (in triplicate). Triplicate wells without treatment were set as control and wells with 2% Triton X-100 were used as positive control. The plate was kept for 2 h, at 37 °C in 5% CO2 incubator. After 2 h, media was removed and the cells were washed once with 1 mL PBS. In dark, 1 mL MTT (working conc. 0.1 mg/mL) was added to each well and incubated for 2 h at 37 °C. After 2 h, the formazan crystals formed were dissolved in 200 μL of DMSO and kept for 5 min in the incubator. 150 μL of this mixture was transferred to a fresh 96-well plate and absorbance was measured spectrophotometrically at 570 nm. % cytotoxicity was calculated as [(OD570 of control-OD570 of sample)/(OD570 of control)] × 100. The assay was done in triplicate on three different days.
substance,measurement,setting,value
Ac-KYKMKHFRWGKPV-NH2 [KKK-MSH],Reduction in initial cell count,[1],4.07 ± 0.92 Log10 CFU/mL
same,Reduction in initial cell count,[2],3.81 ± 0.33 Log10 CFU/mL
same,Cyclic-AMP levels compared to untreated control,"[3]; 37 °C, 100 μM IBMX, enzyme immunoassay, p < 0.05",dose-dependent elevation in cyclic-AMP
same,Cyclic-AMP levels compared to α-MSH,"[3]; comparable at higher, lower at lower concentration",comparable or lower levels of cyclic-AMP
same,Cells retaining PI (PI positive cells),[4],67.6 ± 3.4%
same,Binding constant to bacterial mimic SUVs,"[5]; 12.5 μM peptide titrated with DMPC:DMPG (7:3, w/w) SUVs, L:P 75.6 to 3.3, 10 mM TES pH 7.2, 25 °C, hyperbolic fit, one site model","15,402.74 M^−1"
same,Binding constant relative to α-MSH,"[5]; DMPC:DMPG (7:3, w/w) SUVs, steady-state fluorescence",~ 18 fold
same,"Membrane depolarization, relative fluorescence intensity (RFI) of DiSC3(5)",[6],appreciable increase in RFI
same,% H (% hydrophobicity based on % of acetonitrile at RP-HPLC elution),[7],39.9%
Triton X-100,Cytotoxicity relative to growth control,[8],83%
